Laboratory results: patent US6683103B2, “Sulfonamides for treatment of endothelin-mediated disorders” (Texas Biotechnology Corporation, priority 1997, dated 2004)
Read-outs that look alike come from different tables or passages of the source.

Assays:
[1] = target: T1, human ETA receptors (Homo sapiens, UniProt P25101); assay: Binding Test #1: inhibition of 125I-ET-1 binding to ETA receptors (TE 671 cell membranes); details: read-out: ETA
T1 construct: endogenous in cells; host or cells: TE 671 cells (ATCC HTB 139)
T1 sequence (P25101 21-427): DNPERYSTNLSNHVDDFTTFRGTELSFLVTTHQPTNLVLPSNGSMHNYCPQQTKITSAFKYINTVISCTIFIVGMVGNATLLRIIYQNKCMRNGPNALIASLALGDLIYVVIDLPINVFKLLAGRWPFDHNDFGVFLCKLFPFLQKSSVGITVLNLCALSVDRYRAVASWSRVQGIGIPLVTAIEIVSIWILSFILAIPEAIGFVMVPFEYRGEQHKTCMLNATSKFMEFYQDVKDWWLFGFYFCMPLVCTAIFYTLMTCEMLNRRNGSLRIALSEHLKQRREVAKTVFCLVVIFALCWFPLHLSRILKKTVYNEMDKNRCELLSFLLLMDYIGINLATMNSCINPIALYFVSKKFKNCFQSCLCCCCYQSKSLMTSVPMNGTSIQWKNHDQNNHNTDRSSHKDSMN
Method in brief: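 Radioligand competition in triplicate: ¹²⁵I-endothelin-1 displaced by test compound (1 nM–100 μM final) from ETA-bearing TE 671 cell membranes in HEPES pH 7.4 binding buffer with NaCl, MgCl2 and bacitracin. Incubation 16–18 h at 4 °C (or at 24 °C); 80 nM ET-1 defines nonspecific binding; pellet radioactivity gives percent inhibition.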

[2] = target: T2, human ETB receptor (Homo sapiens, UniProt P24530); assay: Binding Test #2: inhibition of 125I-ET-1 binding to ETB receptors (transfected COS7 cell membranes)
T2 construct: expressed in transfected cells; host or cells: COS7 cells
T2 sequence (P24530 27-442): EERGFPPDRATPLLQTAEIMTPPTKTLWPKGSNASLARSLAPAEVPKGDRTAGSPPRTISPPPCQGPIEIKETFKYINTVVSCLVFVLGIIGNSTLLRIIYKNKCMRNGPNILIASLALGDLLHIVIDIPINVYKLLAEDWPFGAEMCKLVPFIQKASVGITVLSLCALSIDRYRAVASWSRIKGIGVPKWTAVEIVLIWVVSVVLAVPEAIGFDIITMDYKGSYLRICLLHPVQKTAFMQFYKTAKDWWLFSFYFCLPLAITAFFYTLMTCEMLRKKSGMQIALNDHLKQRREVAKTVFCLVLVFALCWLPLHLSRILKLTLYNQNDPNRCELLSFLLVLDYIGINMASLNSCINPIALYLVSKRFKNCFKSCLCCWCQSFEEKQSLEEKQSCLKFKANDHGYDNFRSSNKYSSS
Method in brief: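 Competition with 125I-ET-1 for binding to membranes from COS7 cells transfected with human ETB receptor, used at 1 μg/50 μl binding buffer. Membranes prepared in HEPES pH 7.4 with aprotinin, including a DNase/MnCl2 step at 37 °C for 30 min.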

[3] = Table 1, † incubation at 24° C.
[4] = Table 1, † incubation at 24° C., read-out: ETB
[5] = Table 2, incubation at 4° C., read-out: ETB
[6] = Table 1, incubation at 4° C., read-out: ETB

| IC50 [1, 3] [nM] | IC50 [2, 4] [nM] | IC50 ([1]; Table 1, incubation at 4° C.) [nM] | IC50 [2, 6] [nM] | SMILES | further results |
| --- | --- | --- | --- | --- | --- |
|  |  | 5500 | 1300 | Cc1noc(NS(=O)(=O)c2cc(-c3ccc(C(C)C)cc3)cs2)c1Br [N-(4-bromo-3-methyl-5-isoxazolyl)-4-(4′-isopropylphenyl))thiophene-2-sulfonamide] |  |
| 14000 | 1400 |  |  | Cc1noc(NS(=O)(=O)c2ccc(-c3cccc4ccccc34)s2)c1Br [N-(4-bromo-3-methyl-5-isoxazolyl)-5-(1-naphthyl)thiophene-2-sulfonamide] |  |
|  |  | 381 | 1100 | COc1ccccc1-c1ccc(S(=O)(=O)Nc2onc(C)c2Br)s1 [N-(4-bromo-3-methyl-5-isoxazolyl)-5-(2-methoxyphenyl)thiophene-2-sulfonamide] |  |
| 32000 | 7500 |  |  | Cc1ccc(-c2ccc(S(=O)(=O)Nc3onc(C)c3Br)s2)o1 [N-(4-bromo-3-methyl-5-isoxazolyl)-5-(2-methyfuranyl)thiophene-2-sulfonamide] |  |
|  |  | 432 | 313 | Cc1ccccc1-c1ccc(S(=O)(=O)Nc2onc(C)c2Br)s1 [N-(4-bromo-3-methyl-5-isoxazolyl)-5-(2-tolyl)thiophene-2-sulfonamide] |  |
|  |  | 5100 | 363 | Cc1noc(NS(=O)(=O)c2ccc(-c3cccs3)s2)c1Br [N-(4-bromo-3-methyl-5-isoxazolyl)-5-(2′-thienyl)thiophene-2-sulfonamide] |  |
| 1440 | 2630 | 537 | 1070 | Cc1noc(NS(=O)(=O)c2ccc(-c3cccc(N)c3)s2)c1Br [N-(4-bromo-3-methyl-5-isoxazolyl)-5-(3-aminophenyl)thiophene-2-sulfonamide] |  |
| 23400 | 4700 | 3260 | 776 | COc1cccc(-c2ccc(S(=O)(=O)Nc3onc(C)c3Br)s2)c1 [N-(4-bromo-3-methyl-5-isoxazolyl)-5-(3-methoxyphenyl)thiophene-2-sulfonamide] |  |
| 26000 | 4500 |  |  | Cc1noc(NS(=O)(=O)c2ccc(-c3cccc([N+](=O)[O-])c3)s2)c1Br [N-(4-bromo-3-methyl-5-isoxazolyl)-5-(3-nitrophenyl)thiophene-2-sulfonamide] |  |
|  |  | 4490 | 380 | Cc1noc(NS(=O)(=O)c2ccc(-c3ccsc3)s2)c1Br [N-(4-bromo-3-methyl-5-isoxazolyl)-5-(3-thienyl)thiophene-2-sulfonamide] |  |
| 15000 | 4200 |  |  | Cc1cccc(-c2ccc(S(=O)(=O)Nc3onc(C)c3Br)s2)c1 [N-(4-bromo-3-methyl-5-isoxazolyl)-5-(3-tolyl)thiophene-2-sulfonamide] |  |
| > 100000 | 31000 |  |  | Cc1noc(NS(=O)(=O)c2ccc(-c3ccc(C(=O)O)cc3)s2)c1Br [N-(4-bromo-3-methyl-5-isoxazolyl)-5-(4-carboxyphenyl)thiophene-2-sulfonamide] |  |
|  |  | 3230 | 85.5 | CCc1ccc(-c2ccc(S(=O)(=O)Nc3onc(C)c3Br)s2)cc1 [N-(4-bromo-3-methyl-5-isoxazolyl)-5-(4-ethylphenyl)thiophene-2-sulfonamide] |  |
| 26300 | 2400 | 8690 | 363 | COc1ccc(-c2ccc(S(=O)(=O)Nc3onc(C)c3Br)s2)cc1 [N-(4-bromo-3-methyl-5-isoxazolyl)-5-(4-methoxyphenyl)thiophene-2-sulfonamide] |  |
| > 100000 | 17000 |  |  | COC(=O)c1ccc(-c2ccc(S(=O)(=O)Nc3onc(C)c3Br)s2)cc1 [N-(4-bromo-3-methyl-5-isoxazolyl)-5-(4-methyoxycarbonylphenyl)thiophene-2-sulfonamide] |  |

More lines, now with the values behind:

| SMILES | IC50 [1, 3] [nM] | IC50 [2, 4] [nM] | IC50 ([1]; Table 1, incubation at 4° C.) [nM] | IC50 [2, 6] [nM] | further results |
| --- | --- | --- | --- | --- | --- |
| Cc1cc2c(cc1C=CCc1ccsc1S(=O)(=O)Nc1onc(C)c1Br)OCO2 [N-(4-bromo-3-methyl-5-isoxazolyl)-3-[2-methyl-4,5-(methylenedioxy)cinnamyl]thiophene-2-sulfonamide] | ~100 | ~6000 |  |  |  |
| Cc1cc2c(cc1CCc1ccsc1S(=O)(=O)Nc1onc(C)c1Br)OCO2 [N-(4-bromo-3-methyl-5-isoxazolyl)-3-[2-methyl-4,5-(methylenedioxy)phenethyl]thiophene-2-sulfonamide] | ~100 | ~5000 |  |  |  |
| Cc1noc(NS(=O)(=O)c2sccc2/C=C/c2ccc3c(c2)OCO3)c1Br [N-(4-bromo-3-methyl-5-isoxazolyl)-3-[3,4-(methylenedioxy)-trans-styryl]thiophene-2-sulfonamide] | 218 | 10000 |  |  |  |
| Cc1noc(NS(=O)(=O)c2sccc2CCc2ccc3c(c2)OCO3)c1Br [N-(4-bromo-3-methyl-5-isoxazolyl)-3-[3,4-(methylenedioxy)phenethyl]thiophene-2-sulfonamide] | 236 | 18000 |  |  |  |
| Cc1noc(NS(=O)(=O)c2sccc2-c2ccc3c(c2)OCO3)c1Br [N-(4-bromo-3-methyl-5-isoxazolyl)-3-[(3,4-methylenedioxy)phenyl]thiophene-2-sulfonamide] | 500 | 79000 |  |  |  |
| Cc1noc(NS(=O)(=O)c2cccc(-c3ccccc3)c2)c1Br [N-(4-bromo-3-methyl-5-isoxazolyl)-3-biphenylsulfonamide] |  |  |  |  | IC50 ([1]; Table 2, incubation at 4° C.): ~30 nM; IC50 [2, 5]: 760 nM; IC50 ([2]; read-out: IC50 for ETB receptors): ~760 nM |
| Cc1ccsc1S(=O)(=O)Nc1onc(C)c1Br [N-(4-bromo-3-methyl-5-isoxazolyl)-3-methylthiophene-2-sulfonamide] |  |  | 651 | 7150 |  |
| Cc1noc(NS(=O)(=O)c2sccc2Oc2ccccc2)c1Br [N-(4-bromo-3-methyl-5-isoxazolyl)-3-phenoxythiophene-2-sulfonamide] |  |  | 103 | 3460 |  |
| Cc1noc(NS(=O)(=O)c2sccc2-c2ccccc2)c1Br [N-(4-bromo-3-methyl-5-isoxazolyl)-3-phenylthiophene-2-sulfonamide] |  |  | 54.7 | 11100 |  |
| Cc1noc(NS(=O)(=O)c2sccc2CC=Cc2cc3c(cc2COC2CCCCO2)OCO3)c1Br (stereo not drawn) [N-(4-bromo-3-methyl-5-isoxazolyl)-3-{2-[(tetrahydro-4H-pyran-2-ylxoy)methyl]-4,5-(methylenedioxy)cinnamyl}thiophene-2-sulfonamide] | 96.7 |  |  | 4140 |  |
| CCCc1cc2c(cc1OCc1ccsc1S(=O)(=O)Nc1onc(C)c1Br)OCO2 [N-(4-bromo-3-methyl-5-isoxazolyl)-3-{[2-propyl-4,5-(methylenedioxy)phenoxy]methyl}thiophene-2-sulfonamide] | ~200 | 1500 |  |  |  |
| CCCc1ccc(-c2csc(S(=O)(=O)Nc3onc(C)c3Br)c2)cc1 [N-(4-bromo-3-methyl-5-isoxazolyl)-4-(4-propylphenyl)thiophene-2-sulfonamide] | 962 | 435 |  |  |  |
| Cc1noc(NS(=O)(=O)c2cc(CCc3ccccc3)cs2)c1Br [N-(4-bromo-3-methyl-5-isoxazolyl)-4-(phenethyl)thiophene-2-sulfonamide] |  |  | 6640 | 3970 |  |
| Cc1noc(NS(=O)(=O)c2ccc(-c3ccccc3)cc2)c1Br [N-(4-bromo-3-methyl-5-isoxazolyl)-4-biphenylsulfonamide] |  |  |  |  | IC50 ([1]; Table 2, incubation at 4° C.): 3300 nM; IC50 ([1]; Table 2, † incubation at 24° C.): 49000 nM; IC50 [2, 5]: ~170 nM; IC50 ([2]; Table 2, † incubation at 24° C., read-out: ETB): 1230 nM |
| Cc1noc(NS(=O)(=O)c2cc(-c3ccccc3)cs2)c1Br [N-(4-bromo-3-methyl-5-isoxazolyl)-4-phenylthiophene-2-sulfonamide] |  |  | 224 | 1170 |  |
| CCCC#Cc1ccc(S(=O)(=O)Nc2onc(C)c2Br)s1 [N-(4-bromo-3-methyl-5-isoxazolyl)-5-(1-pentynyl)thiophene-2-sulfonamide] | 29000 | 5600 |  |  |  |
| Cc1noc(NS(=O)(=O)c2ccc(C#CC(C)(C)C)s2)c1Br [N-(4-bromo-3-methyl-5-isoxazolyl)-5-(3,3-dimethylbutyn-1-yl)thiophene-2-sulfonamide] | 7240 | 35500 | 1120 | 24000 |  |
